The source of these data is patent US10390536B2, “Methods, compounds and compositions for repelling insects and/or arachnids” (National Center for Scientific Research “Demokritos”, priority 2013, dated 2019).

Read-outs that look alike come from different tables or passages of the source.

Holding throughout (format): in vivo
In assay [1] the test system is Anopheles gambiae (Giles) ss strain 16CSS female mosquitoes. In words: warm body repellence assay (mosquito landings). The note with it: for repellent activity in the warm body assay (in words): candidate compounds, initially 1.0-5.0 μg/cm^2 (about 5-31.5 nmole/cm^2). The method, then:
To test the behavior of female mosquitoes to an essential oil containing OBP binding components, a previously described repellence assay [Kröber et al. (2010). An In Vitro Assay for Testing Mosquito Repellents Employing a Warm Body and Carbon Dioxide as a Behavioral Activator. Journal of the American Mosquito Control Association 26(4) 381-386] was conducted that measures the number of mosquito landings on a warm surface onto which an essential oil containing at least one candidate compound was applied.
To conduct a repellency assay, a selected essential oil or ethanol negative control was applied to a warm body at a dose of about 3.8 μg/cm^2 and allowed to dry for 40 seconds in order to allow evaporation of the solvent before introduction into the test cage with mosquitoes. As positive control for repellence, DEET dissolved in ethanol was applied to the warm body at the same dose. The treated warm body in conjunction with a pulse of carbon dioxide was introduced into the test cage containing fifty Anopheles gambiae (Giles) ss strain 16CSS female mosquitoes that were 4-11 days old and the number of mosquito landings on the warm body occurring within a 2-minute period was counted. Each candidate compound was tested in five different cages (i.e., 250 female mosquitoes) in a randomized design, and the ethanol control and up to four candidate compounds were tested in each cage. Raw data on numbers of landings by mosquitoes were analyzed using a linear mixed model accounting for treatment, experimental day, the individual cage, the number of females per cage and the level of the carbon dioxide pulse in ppm using R (R Development Core Team, 2010) and the packages LME4 (Bates and Maechler, Ime4: Linear mixed-effects models using {S4} classes.{R} package version 0.999375-32, 2009) and NLME (Pinheiro et al, nlme: Linear and Nonlinear Mixed Effects Models, 2010; the R Development Core Team, R: A Language and Environment for Statistical Computing, 2010). Repellent values were calculated from counted landings on treatments versus the overall landings on pooled controls.
To test the behavior of female mosquitoes to a candidate compound identified in Example 5, behavioral assays were made using the identified compounds. The repellent assay was performed as described in Example 3, except that candidate compounds were dissolved in ethanol and tested initially at doses between 1.0 and 5.0 μg/cm^2 (about 5-31.5 nmole/cm^2) and, whenever necessary, at lower and/or higher doses as well. Besides the compounds identified in Example 5, compounds related to these were also tested including ethyl-cinnamate and butyl-cinnamate (Table 4).
To test the behavior of female mosquitoes to various combinations of candidate compounds identified in Example 6, repellence assays were made as in Example 3. These repellent assays were made to compare the effectiveness of the strongest repellent compounds identified in Example 6, including, without limitation, carvacrol, ethyl cinnamate, butyl cinnamate, and cumin alcohol with that of DEET.
The doses tested were 2, 4, 6 10 and 20 nmol/cm^2 for the single compounds. The binary 50:50 mixtures were tested at 2, 6, 10 and 20 nmol/cm^2, with each compound making up half the amount tested, so that, for example, the 2 nmol/cm^2 concentration in column A+B represents 1 nmol/cm^2 of A and 1 nmol/cm^2 of B in a binary mixture. DEET was also tested at 25 nmol (top response) and carvacrol was tested at the additional dose of 2.5 nmol (second from left within its column). As an indication, DEET at 20 nmol/cm^2=3.8 μg/cm^2. Mosquitoes were activated using a puff of CO2 from a gas tank upon introduction of the warm body into the test cage containing 50±5 A. gambiae females and mosquito landings were counted for 2 minutes. Each treatment (dose) was tested using five test cages, i.e. on a total of 250 female A. gambiae. […]

For assay [2], the system named is Anopheles gambiae s.l. Briefly: experimental hut field trial of spatial repellence, Anopheles. The settings on record: single compound, 1 ml in open vial in MM-X trap. The protocol: (§1) To test the effects of repellent compounds or compositions disclosed herein on mosquitoes in a controlled environment resembling actual living quarters and conditions, field trials with standardized experimental huts were conducted at Kainji Dam in North Central Nigeria.
(§2) Six such huts were built in a straight line, and the distance between huts was 11 meters. These huts follow a traditional square design, the walls are built with concrete blocks that are subsequently plastered with cement, each wall has a window. The ceiling is plywood and the roof is thatched with eaves that are open, thereby allowing free flow of air into and out of the hut, and thus entry and exit of mosquitoes. There is a door for entry and exit. Two opposing sides of each hut have window exit traps and screened verandas to capture mosquitoes leaving via the windows or eaves. Each hut is raised off the ground on a concrete platform and surrounded by a moat filled with water in order to prevent ants from entering. Each hut is fitted with a mattress and an untreated bed net for sleepers. These huts are similar in design and concept to those used previously elsewhere for studying mosquito behavior and measuring the efficacy of various mosquito control products or intervention methods in Tanzania and Gambia. For design parameters refer to WHOPES 2005. The huts are adjacent to a tributary of the River Niger at a distance of 10 km from the Kainji Dam site and face rice fields known to harbor permanent mosquito breeding sites. The mosquitoes endemic to this area of Nigeria are highly endophillic, that is, they rest mainly indoors.
(§3) Human volunteers that participated as sleepers in this field trial were provided with anti-malarial chemical prophylaxis on a weekly basis, and the protocols used herein were reviewed and approved by the Research Ethics Review Committee of the Nigerian Institute of Medical Research. Six male adult volunteers, aged between 25 and 35 years old, were recruited to sleep in the huts described above. Sleepers were allocated to huts randomly for each series of trials, and this randomization process occurred nightly. The volunteers entered the huts by 21:00 each night and remained inside the huts until 06:30 the following morning. Each morning, the windows were closed and the exit traps blocked with a piece of cloth to prevent mosquitoes that entered from exiting. The traps were then put in a freezer at −20° C. to kill all the mosquitoes before being emptied for identification. By means of a sucking aspirator the verandas and rooms were visually searched for live mosquitoes and any insects found were collected in labelled cups. A 10-minute search was conducted for each hut (room and veranda traps). The exit traps were emptied into a labelled cup and all the mosquitoes placed in the freezer at −20° C. for about 30 minutes before morphological identification.
(§4) The Mosquito Magnet trap Model-X (MM-X trap made by the firm formerly known as American Biophysics (ABC), USA) is a 12V battery operated counter-flow trap that was used as the repellent dispersing device to evaluate the efficacy of repellent compounds or compositions disclosed herein. Four compounds, carvacrol, cumin alcohol, ethyl cinnamate, and butyl cinnamate, were evaluated in comparison to DEET as a nonproprietary conventional repellent in a first experiment. The chemical compounds were provided in liquid form: carvacrol (98%), butyl cinnamate (98%), ethyl cinnamate (98%), cumin alcohol (97%) and DEET (97%). […]

Assay [3] concerns Culex spp. In words: experimental hut field trial of spatial repellence, Culex. The settings on record: single compound, 1 ml in open vial in MM-X trap. The protocol: as §1, §2, §3, §4
[4] abbreviates: 2 nmol (per cm^2, total for mixtures, 50:50).
The mark [5] stands for this setting: 4 nmol (per cm^2, total for mixtures, 50:50).
[6] abbreviates: 6 nmol (per cm^2, total for mixtures, 50:50).
The mark [7] stands for this setting: 10 nmol (per cm^2, total for mixtures, 50:50).
Where [8] appears, read: 20 nmol (per cm^2, total for mixtures, 50:50).
[9] abbreviates: Anopheles gambiae, 2 min, read-out: Median Repellency (%).

In the case of `CCN(CC)C(=O)c1cccc(C)c1` [DEET, N,N-diethyl-3-methylbenzamide, reference compound], the Median repellence % in assay [1] (setting [4]) came to 2%; in assay [1] (setting [5]), 41%; in assay [1] (setting [6]), 80%; in assay [1] (setting [7]) it was 96%; in assay [1] (setting [8]) it was 98%; in assay [1] (25 nmol (per cm^2)), 100%. Further, in assay [1] (Anopheles gambiae, 2 min, 20 nmole per cm^2, read-out: Median Repellency (%)), the median repellency (%) at 20 nmol/cm2 was found to be 98.5%. For the same molecule, the “mosquito counts on the inside walls of the huts (in words)” value in assay [2] and in assay [3] was “reduced mosquito counts on the inside walls” each time.
For the molecule `Cc1ccc(C(C)C)cc1O` [carvacrol, 5-isopropyl-2-methylphenol], the Median repellence % in assay [1] (setting [4]) is 13%; in assay [1] (setting [5]), 55%; in assay [1] (setting [6]) it was 40%; in assay [1] (setting [7]), 59%; in assay [1] (25 nmol (per cm^2)), 93%. In assay [1] (setting [9]), the median repellency (%) at 25 nmol/cm2 was 93.3%. Moreover, the “repellent activity in the warm body assay (in words)” value in assay [1] is on record as “activity comparable to DEET”. The “repellent activity (in words)” value in assay [1] (total concentration 2 nmole/cm^2) is “retained repellent activity”. The “mosquito counts on the inside walls of the huts (in words)” value in assay [2] and in assay [3] was “reduced mosquito counts on the inside walls” throughout.
`CC(C)c1ccc(CO)cc1` [cumin alcohol]: the Median repellence % is on record as −4% in assay [1] (setting [4]); 38% in assay [1] (setting [5]); 46% in assay [1] (setting [6]); 53% in assay [1] (setting [7]); 93% in assay [1] (setting [8]). Also, the median repellency (%) at 20 nmol/cm2 in assay [1] (setting [9]) came to 92.3%. Besides, the “repellent activity in the warm body assay (in words)” value in assay [1] is recorded as “activity comparable to DEET”. Moreover, the “spatial repellent effect, induced exophily (in words)” value in assay [2] (per night) and in assay [3] (per night) was “significantly lower than that of DEET” in each case.
